In PubChem BioAssay (NCI):
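Tested at 5 concentrations; 48 h exposure; 96-well plates; endpoints linearly interpolated, else capped at highest concentration. GI50: concentration for 50% inhibition of growth. TGI marks complete inhibition of growth.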

Experiments:
Assay in all cases: growth of human tumour cells (NCI), 48 h
U251 CNS = test system: U251 CNS
HOP-62 NSCLC = test system: HOP-62 NSCLC
SK-MEL-2 melanoma = test system: SK-MEL-2 melanoma
HL-60(TB) leukemia = test system: HL-60(TB) leukemia
OVCAR-3 ovarian = test system: OVCAR-3 ovarian
HCT-15 colon = test system: HCT-15 colon
A498 renal = test system: A498 renal
NCI-H226 lung = test system: NCI-H226 lung
SK-OV-3 ovarian = test system: SK-OV-3 ovarian
CAKI-1 renal = test system: CAKI-1 renal
KM12 colon = test system: KM12 colon

Structure (SMILES)	GI50 (U251 CNS) [µM]	TGI (U251 CNS) [µM]	GI50 (HOP-62 NSCLC) [µM]	TGI (HOP-62 NSCLC) [µM]	GI50 (SK-MEL-2 melanoma) [µM]	TGI (SK-MEL-2 melanoma) [µM]	GI50 (HL-60(TB) leukemia) [µM]	TGI (HL-60(TB) leukemia) [µM]	GI50 (OVCAR-3 ovarian) [µM]	TGI (OVCAR-3 ovarian) [µM]	GI50 (HCT-15 colon) [µM]	TGI (HCT-15 colon) [µM]	GI50 (A498 renal) [µM]	TGI (A498 renal) [µM]	GI50 (NCI-H226 lung) [µM]	TGI (NCI-H226 lung) [µM]	GI50 (SK-OV-3 ovarian) [µM]	TGI (SK-OV-3 ovarian) [µM]	TGI (CAKI-1 renal) [µM]	TGI (KM12 colon) [µM]
C[C@]12CCc3sc(Nc4ccc(O)cc4)nc3C1=CC[C@@H]1[C@@H]2CC[C@]2(C)C(=O)CC[C@@H]12	3.06	21.9	3.28	12.6	6.98	> 100	2.57	7.27	1.71	3.38	1.66	4.4	14.2	80.6	2.86	8.52	12.3	> 100	–	–
COc1ccc(-c2c3c(nc4nc(SC)nc(SC)c24)CCCC3)cc1OC	–	> 100	–	> 100	–	> 100	–	51.4	–	> 100	–	> 100	–	> 100	–	> 100	–	> 100	> 100	> 100
CCc1nnc(-c2nsc3ccccc23)s1	–	> 100	–	> 100	–	> 100	–	> 100	–	> 100	–	> 100	–	–	–	–	–	–	–	> 100
CCSc1nc(=[N+]2CCCC2)ss1	–	> 100	–	> 100	–	> 100	–	26.6	–	48.2	–	> 92.8	–	> 100	–	> 91.3	–	> 100	> 100	> 100
NC(=S)N/N=C1\c2ccccc2CCC1CCC1(O)CCc2ccccc2C1=O (stereo not drawn)	–	> 100	–	> 100	–	–	–	20.6	–	36.3	–	> 100	–	–	–	–	–	> 100	> 100	> 100
CC(c1ccccc1)/[N+]([O-])=C/c1ccccc1 (stereo not drawn)	–	> 100	–	> 100	–	–	–	> 100	–	> 100	–	–	–	> 100	–	–	–	> 100	–	> 100
O=C(O)CC1OCC=C2CN3CCC45C6=CC(=O)C(=O)C([N+](=O)[O-])=C6NC4C1C2CC35 (stereo not drawn)	–	> 100	–	> 100	–	> 100	–	> 100	–	> 100	–	> 100	–	> 100	–	> 100	–	> 100	> 100	> 100
C/C(=N\NC(=S)Nc1ccc(C)cc1)c1nc2ncccc2[nH]1	–	15.4	–	39.2	–	25.4	–	–	–	9.71	–	19.4	–	23.4	–	8.01	–	58.3	> 100	32
CN1CCN(c2cc(-c3cc4ccccc4o3)oc(=O)c2C#N)CC1	–	> 100	–	–	–	> 100	–	> 100	–	–	–	> 100	–	> 100	–	60.7	–	–	> 100	> 100
O=C(O)CC1(CC(=O)O)Nc2ccccc2SC1=O	–	> 100	–	> 100	–	> 100	–	–	–	> 100	–	> 100	–	> 100	–	> 100	–	> 100	> 100	> 100
Cc1ccc(Nc2nc(NS(=O)(=O)c3cc(C(=O)Nc4ccc(Cl)cc4)c(Cl)cc3S)n[nH]2)cc1	–	> 100	–	> 100	–	–	–	> 100	–	> 100	–	> 100	–	–	–	–	–	> 100	> 100	> 100
CC(CCC(=O)O)C1CCC2C3C(O)CC4CC(O)CCC4(C)C3CC(O)C12C (stereo not drawn)	–	> 100	–	> 100	–	> 100	–	> 100	–	> 100	–	> 100	–	> 100	–	> 100	–	> 100	> 100	> 100
CC1OC1C(=O)C1(O)C(C)C(O)C23OC2(C(O)c2c(O)cccc2C3=O)C1O (stereo not drawn)	–	1.09	–	0.462	–	0.413	–	0.383	–	0.352	–	0.926	–	1.2	–	0.838	–	0.532	0.253	1.04
COC1=CC(=O)c2c(O)c3c(c(O)c2C1=O)C=C(C)OC3O (stereo not drawn)	–	7.72	–	7.04	–	5.19	–	> 23	–	6.33	–	2.07	–	4.91	–	8.24	–	23.7	14.5	12.2
O=C(NN1C(=O)CSC1c1ccc(C(F)(F)F)cc1)c1ccncc1 (stereo not drawn)	–	> 100	–	> 100	–	> 100	–	> 100	–	> 100	–	> 100	–	> 31.6	–	> 100	–	> 100	> 100	> 100
CCOP(=O)(CN=C(c1ccccc1)c1ccccc1)OCC	–	> 100	–	> 100	–	> 100	–	> 100	–	> 100	–	> 100	–	> 100	–	> 100	–	> 100	> 100	–
